The source made the active and inactive calls. The calls are words filed in the database; no cut-off is given here.
Tests used:
[1] = biological target: T1, Uracil nucleotide/cysteinyl leukotriene receptor (Homo sapiens, UniProt Q13304); experiment: Inverse agonist at human GPR17 in human LN-229 cells assessed as intracellular cAMP levels incubated for 2 hrs by cAMP Glo Dynamic assay
[2] = biological target: T1, Uracil nucleotide/cysteinyl leukotriene receptor; experiment: Inverse agonist at human GPR17 in human SNB-19 cells assessed as intracellular cAMP levels incubated for 2 hrs by cAMP Glo Dynamic assay
[3] = biological target: T1, Uracil nucleotide/cysteinyl leukotriene receptor; experiment: Agonist activity at human GPR17 in human LN-229 cells assessed as decrease in calcium ion levels incubated for 2 hrs by Calcium Fura 2 Dynamic assay
[4] = biological target: T1, Uracil nucleotide/cysteinyl leukotriene receptor; experiment: Agonist activity at human GPR17 in human SNB-19 cells assessed as decrease in calcium ion levels incubated for 2 hrs by Calcium Fura 2 Dynamic assay
LN-229 [5] = experiment: Cytotoxicity effect against human LN-229 cells assessed as cell growth inhibition incubated for 48 hrs by trypan blue exclusion assay; format: functional, cell-based; settings: LN-229, 48 h
SNB-19 [6] = experiment: Cytotoxicity effect against human SNB-19 cells assessed as cell growth inhibition incubated for 48 hrs by trypan blue exclusion assay; format: functional, cell-based; settings: SNB-19, 48 h
[7] = biological target: T1, Uracil nucleotide/cysteinyl leukotriene receptor; experiment: Agonist activity at human GPR17 in human LN-229 cells assessed as decrease in intracellular cAMP levels incubated for 2 hrs by cAMP Glo Dynamic assay
LN-229 [8] = experiment: Cytotoxicity against human LN-229 cells assessed as increase in cell death at 100 uM incubated for 48 hrs by trypan blue exclusion assay; format: functional, cell-based
SNB-19 [9] = experiment: Cytotoxicity against human SNB-19 cells assessed as cell growth inhibition at 100 uM incubated for 48 hrs by trypan blue exclusion assay; format: functional; settings: read-out: GI
LN-229 [10] = experiment: Cytotoxicity against human LN229 cells assessed as cell growth inhibition at 100 uM incubated for 48 hrs by trypan blue exclusion assay; format: functional; settings: read-out: GI
[11] = Cytotoxicity against mouse MEF cells assessed as cell growth inhibition at 100 uM incubated for 48 hrs by trypan blue exclusion assay; format: cell-based

T1 sequence (Q13304 whole entry): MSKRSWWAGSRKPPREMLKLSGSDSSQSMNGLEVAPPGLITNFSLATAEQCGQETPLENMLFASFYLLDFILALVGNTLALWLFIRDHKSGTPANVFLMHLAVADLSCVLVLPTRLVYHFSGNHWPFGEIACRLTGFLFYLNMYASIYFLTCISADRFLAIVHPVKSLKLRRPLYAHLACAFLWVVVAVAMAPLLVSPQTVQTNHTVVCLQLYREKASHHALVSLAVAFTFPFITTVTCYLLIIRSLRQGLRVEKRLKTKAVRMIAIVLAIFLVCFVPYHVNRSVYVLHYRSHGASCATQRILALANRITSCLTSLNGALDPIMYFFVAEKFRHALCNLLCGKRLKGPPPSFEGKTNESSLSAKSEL

| SMILES | EC50 [1] [µM] | EC50 [2] [µM] | EC50 [3] [µM] | EC50 [4] [µM] | IC50 (LN-229 [5]) [µM] | IC50 (SNB-19 [6]) [µM] | EC50 [7] [µM] | Activity (LN-229 [8]) | inhibition of growth at 100 µM (SNB-19 [9]) [%] | inhibition of growth at 100 µM (LN-229 [10]) [%] | inhibition at 48 h, 100 µM [11] [%] |
| --- | --- | --- | --- | --- | --- | --- | --- | --- | --- | --- | --- |
| O=C(O)CCC1=C(C(=O)O)Cc2cc(Cl)cc(Cl)c21 | 16.6 | 17.7 | 26.9 | 26.3 | – | – | – | – | – | – | – |
| Cn1nnc2c(C(N)=O)ncn2c1=O [TEMOZOLOMIDE] | – | – | – | – | 67.8 | 69.9 | – | – | – | – | – |
| O=C(Nc1ccccc1)Oc1cc(OC(=O)Nc2ccccc2)c2c(c1)N(C(c1ccc(F)cc1)c1cccc(Cl)c1O)CC2 (stereo not given) | – | – | 41.9 | 7.67 | 85.3 | 85.5 | 59.6 | Active | 37 | 50 | < 5 |

Reference: ChEMBL document CHEMBL5030526, “Synthesis and Preclinical Validation of Novel Indole Derivatives as a GPR17 Agonist for Glioblastoma Treatment” (J Med Chem, 2021)
